Where a SMILES comes first, the peptide text is derived from it. Bridges are numbered along the chain shown (N, C = ends). [ ]: non-standard residue; d: D form. The star is where a group is joined. d(aThr) = C[C@@H](O)[C@@H](N)C(=O)O; Isobutyryl = CC(C)C(=O)*; Dhb = C/C=C(\N)C(=O)O; Propionyl = CCC(=O)*
What was measured:
[1] = system: lung, gastric, and colorectal cancers; conditions: cited from earlier work
[2] = system: matrix metalloproteinase-2 and -9; conditions: lung, gastric, and colorectal cancers; cited from earlier work
M. aurum = test: Crystal violet biofilm formation assay, M. aurum; conditions: crystal violet staining, 0.2 µg/µL, KB medium, 28 °C, 2 d
Pseudomonas sp. G124 = test: Crystal violet biofilm formation assay, Pseudomonas sp. G124; conditions: crystal violet staining, 0.2 µg/µL, KB medium, 28 °C, 2 d
P. syringae pv. glycinea = test: Crystal violet biofilm formation assay, P. syringae pv. glycinea; conditions: crystal violet staining, 0.2 µg/µL, KB medium, 28 °C, 2 d
[3] = system: Lysinibacillus sphaericus DSM1867; conditions: for inhibition zone against L. sphaericus: DSM1867, 0.1 mg/mL; for antibiotic activity against L. sphaericus (in words): agar diffusion, 5 µg/hole (Figure S97b)

Row | Molecule | cancer cell motility (in words) [1] | expression of the matrix metalloproteinase-2 and -9 (in words) [2] | effect on biofilm formation in M. aurum (in words) (M. aurum) | effect on biofilm formation in Pseudomonas sp. G124 (in words) (Pseudomonas sp. G124) | effect on biofilm formation in P. syringae pv. glycinea (in words) (P. syringae pv. glycinea) | inhibition zone against L. sphaericus [3] [mm] | antibiotic activity against L. sphaericus (in words) [3]
1 | nobilamide I [nobilamide I (8)] | suppressed | suppressed | less clear effect | less clear effect | worked best |  | 
2 | nobilamide S [nobilamide S (18)] |  |  |  | induced biofilm formation | did not promote biofilm formation |  | 
3 | C/C=C1\NC(=O)[C@H](C)NC(=O)[C@H](C(C)C)NC(=O)[C@H](NC(=O)[C@H](Cc2ccccc2)NC(=O)[C@@H](CC(C)C)NC(=O)[C@@H](Cc2ccccc2)NC(=O)C(C)C)[C@@H](C)OC1=O [nobilamide J (9), nobilamide J] (Isobutyryl-[dF][dL]F[d(aThr)]VA[Dhb]; ester 4-C) |  |  |  |  |  | 21.3 | powerful antibiotic activity
4 | C/C=C1\NC(=O)[C@H](C)NC(=O)[C@H](C(C)C)NC(=O)[C@H](NC(=O)[C@H](Cc2ccccc2)NC(=O)[C@@H](CC(C)C)NC(=O)[C@@H](Cc2ccccc2)NC(=O)CC)[C@@H](C)OC1=O [A-3302-A (2), A-3302-A] (Propionyl-[dF][dL]F[d(aThr)]VA[Dhb]; ester 4-C) |  |  |  |  |  | 18.3 | powerful antibiotic activity
5 | nobilamide A [nobilamide A (4)] |  |  | strongly induced | strongly induced | strongly induced |  | did not exhibit antimicrobial activity
6 | nobilamide W [nobilamide W (22)] |  |  | strongly induced | strongly induced | strongly induced |  | 
